From ChEMBL document CHEMBL5303304, “EUbOPEN Chemogenomics Library - IncuCyte” (2023)
“And” between values parts separate entries of the source, which are not always exact repeats. Identical values can stand only once.

How the values were obtained:
Assay type in all cases: toxicity, cell-based
Fibroblast = experiment: Incucyte cell viability with human fibroblast; conditions: 10 µM, compound concentration 10 uM
HEK-293T = experiment: Incucyte cell viability with HEK293T; conditions: human, 10 µM, compound concentration 10 uM
U2OS = experiment: Incucyte cell viability with U2OS; conditions: human, 10 µM, compound concentration 10 uM
Also: unitless GR value; below 1 slowed growth and below 0 cell loss.

Structure (SMILES) | Growth Rate (Fibroblast; 0 h, replicate number 1) | Growth Rate (Fibroblast; 0 h, replicate number 2) | Growth Rate (Fibroblast; 24 h, replicate number 2) | Growth Rate (HEK-293T; 0 h, replicate number 2) | Growth Rate (HEK-293T; 6 h, replicate number 1) | Growth Rate (HEK-293T; 6 h, replicate number 2) | Growth Rate (HEK-293T; 12 h, replicate number 1) | Growth Rate (HEK-293T; 12 h, replicate number 2) | Growth Rate (HEK-293T; 18 h, replicate number 1) | Growth Rate (HEK-293T; 18 h, replicate number 2) | Growth Rate (HEK-293T; 24 h, replicate number 1) | Growth Rate (HEK-293T; 24 h, replicate number 2) | Growth Rate (U2OS; 18 h, replicate number 2) | Growth Rate (U2OS; 24 h, replicate number 2) | Growth Rate (Fibroblast; 6 h, replicate number 1) | Growth Rate (Fibroblast; 24 h, replicate number 1) | Growth Rate (U2OS; 0 h, replicate number 2) | Growth Rate (U2OS; 6 h, replicate number 1) | Growth Rate (U2OS; 6 h, replicate number 2) | Growth Rate (Fibroblast; 6 h, replicate number 2) | further results
CN(C)[C@H]1CCc2nc(NC(=O)c3cccc(Cn4cc(-c5ccc(C#N)cc5)cn4)c3)sc2C1.O=C(O)C(F)(F)F | -0.59 | -0.64 | 0.57 | -0.96 | 0.98 | 0.68 | 0.52 | 0.74 | 0.59 | 0.68 | 0.51 | 0.62 | 0.89 | 0.75 | – | – | – | – | – | – | –
N#Cc1ccc(C#CC[C@@H](C#N)NC(=O)[C@H]2CCCCN2)cc1F.O=C(O)C(F)(F)F | -1 | – | – | -0.1 | – | – | – | – | – | – | – | – | 0.73 | 0.73 | 0.94 | 0.92 | 0.12 | 0.86 | 0.95 | – | Growth Rate (Fibroblast; 18 h, replicate number 1): 0.86; Growth Rate (U2OS; 12 h, replicate number 2): 0.78
CC[C@H](Nc1ncnc2[nH]cnc12)c1nc2cccc(F)c2c(=O)n1-c1ccccc1 [IDELALISIB] | 0.15 | -0.51 | – | – | 0.29 | -0.34 | 0.62 | 0.12 | 0.31 | 0.29 | 0.38 | 0.36 | – | 0.94 | – | 0.92 | – | – | 0.92 | 0.25 | Growth Rate (Fibroblast; 12 h, replicate number 2): 0.49; Growth Rate (Fibroblast; 18 h, replicate number 2): 0.95
C=CC(=O)N1CCC[C@@H](n2nc(C(=O)Nc3ccc(CC(=O)N(C)C)c(C)c3C)c3c(N)ncnc32)C1 | 0.74 | -1 | – | -0.68 | – | – | – | – | – | – | – | – | – | – | -0.17 | 0.16 | -0.77 | – | – | – | Growth Rate (Fibroblast; 12 h, replicate number 1): -1; Growth Rate (HEK-293T; 0 h, replicate number 1): -0.26
Fc1ccc(-c2c3cccc(C(F)(F)F)c3nn2Cc2ccc(F)cc2Cl)cc1 [LXR-623] | – | – | 0.03 | -0.86 | 0.77 | 0.3 | 0.75 | 0.57 | 0.77 | 0.76 | 0.91 | 0.73 | 0.94 | 0.9 | -0.18 | -0.06 | 0.79 | – | 0.69 | 0.35 | Growth Rate (Fibroblast; 12 h, replicate number 1): -0.03; Growth Rate (Fibroblast; 12 h, replicate number 2): 0.12; Growth Rate (Fibroblast; 18 h, replicate number 1): -0.12; Growth Rate (Fibroblast; 18 h, replicate number 2): -0.04; Growth Rate (HEK-293T; 0 h, replicate number 1): 0.13; Growth Rate (U2OS; 12 h, replicate number 2): 0.95
COc1cc(OC)cc(-c2cc3cnc(N)nc3nc2NC(=O)NC(C)(C)C)c1 | – | 0.79 | 0.45 | -0.38 | 0.92 | – | 0.8 | – | 0.71 | 0.36 and 0.62 | 0.65 and 0.98 | 0.38 and 0.68 | – | – | -0.05 | – | 0.36 and 0.2 | 0.92 | – | 0.11 | Growth Rate (Fibroblast; 18 h, replicate number 2): 0.45; Growth Rate (U2OS; 12 h, replicate number 1): 0.8; Growth Rate (U2OS; 18 h, replicate number 1): 0.67 and 0.9; Growth Rate (U2OS; 24 h, replicate number 1): 0.91
Cn1c(C2(NC(=O)c3ccc(NCC4CCCCC4)nc3)CCC2)nc2ccc(/C=C/C(=O)O)cc21 [BI 7656] | – | – | 0.72 | -0.78 | 0.41 | – | 0.81 | – | – | – | – | – | – | 0.93 | – | 0.94 | 0.24 | 0.81 | – | -0.44 | Growth Rate (Fibroblast; 12 h, replicate number 2): 0.82; Growth Rate (U2OS; 0 h, replicate number 1): 0.79; Growth Rate (U2OS; 12 h, replicate number 1): 0.92; Growth Rate (U2OS; 24 h, replicate number 1): 0.92
